This experiment relates to d(ATGCAT)2 (DNA, duplex) ATGCAT. As to the kind of experiment: melting temperature. The note with it: derived from two Tm (~30 free, ~45 complex); reviewed from authors' ref 23.

The source of these data is paper PMC4772870 (2015).

For the compound `Cc1cccc2nc3cccc(C(=O)NCCNCCNCCNC(=O)c4cccc5nc6cccc(C)c6nc45)c3nc12`, the dTm was ~ 15 °C.
